Measurements taken from patent publication US11033549B2, “Use of heterocyclic compounds in the treatment of pigmented skin” (ATIR Holding S.A., priority 2017, dated 2021).

Test system: skin
Assay: Effect of topical application of R-55 on skin of female volunteers
Format: in vivo, human
Settings: two middle-aged Caucasian female volunteers, daily topical application, after about one month
Protocol: A formulation for topical administration of R-55 (2-((4-(3-hydroxyphenyl)piperazin-1-yl)methyl)quinazolin-4-one) was prepared, comprising 10 mg/ml R-55.
A lipid-based phase was formed which consisted primarily of propylene glycol (a solvent of R-55 and penetration enhancer), along with Gelucire® 44/14 lauroyl macrogolglycerides (a solubilizer of R-55), Gelucire® 50/13 stearoyl macrogolglycerides (a sustained release agent), phosphatidyl choline (a surfactant), Labrasol® caprylocaproyl macrogolglycerides (a co-surfactant and penetration enhancer), Lauroglycol™ 90 (a solubilizer of R-55, co-surfactant and penetration enhancer), and vitamin E TPGS (a stabilizer). The ingredients were mixed by stirring at a temperature in a range of from 40° C. to 60° C. until the phosphatidyl choline and R-55 were completely dissolved, as indicated by obtaining a clear solution.
An aqueous solution of a carbomer (Carbopol® Ultrez 10) was added to the lipid-based phase with R-55 to obtain 100 grams of a suspension, which was stirred continuously at room temperature. A gel-like water-in-oil emulsion was formed, with relatively round aqueous droplets dispersed in a lipophilic phase, and the emulsion was stable for at least 2 weeks at room temperature. […]

Structure (SMILES): O=c1nc(CN2CCN(c3cccc(O)c3)CC2)[nH]c2ccccc12 [R-55, 2-((4-(3-hydroxyphenyl)piperazin-1-yl)methyl)quinazolin-4-one]
- skin pigmentation (10 mg/ml R-55, face and behind the ear): noticeably less pigmented
- skin appearance (10 mg/ml R-55): overall fresher, younger appearance
